Earlier results in patent US5179102A, “Naphthyridinyl/naphthyridinylalkyl-n-terminal anino hydroxy β-amino acid derivatives” (G. D. Searle & Co., priority 1991, dated 1993).
Square brackets hold non-standard residues; d marks the D form. Peptide text beside a SMILES is read from it. * marks the point of attachment. Sta = CC(C)C[C@H](N)[C@@H](O)CC(=O)O; Isovaleryl = CC(C)CC(=O)*

Test system: hog renin
Conditions: after the injection of hog renin into nephrectomized rats

## CC(C)CC(=O)N[C@H](C(=O)N[C@H](C(=O)N[C@@H](CC(C)C)[C@@H](O)CC(=O)N[C@@H](C)C(=O)N[C@@H](CC(C)C)[C@@H](O)CC(=O)O)C(C)C)C(C)C [pepstatin] (Isovaleryl-VV[Sta]A[Sta]-OH)
  reduce blood pressure in vivo: found to reduce blood pressure in vivo
